Source: paper PMC8179178 (Chemical Science, 2021)
Converted amounts (≈) assume the structure as drawn. Where a name gives a salt, the structure may show the parent alone. Values belong to the molecule of their own block, whether it stands above or below them.

Columns and labels:
MC38 cells = assay: MTT cell proliferation assay; type: cell-based, murine; conditions: Mus musculus, MC-38, read-out: Cytotoxicity (IC50)
Solubility in PBS = type: physicochemical; conditions: aqueous buffer
rats = conditions: given over 22 days; cited from earlier work

SMILES: COc1cccc2c1C(=O)c1c(O)c3c(c(O)c1C2=O)C[C@@](O)(C(=O)CO)C[C@@H]3O[C@H]1C[C@H](N)[C@H](O)[C@H](C)O1 [Dox HCl, doxorubicin]
IC50 (MC38 cells): 23 nM
solubility (Solubility in PBS): 3800 µg/mL
Multi-dose MTD of conventional Dox (rats): 10 mg/kg

solubility (Solubility in PBS): 2800 µg/mL (≈ 4.76 mM)
SMILES: COc1cc([C@@H]2c3cc4c(cc3[C@@H](O[C@@H]3O[C@@H]5CO[C@@H](C)O[C@H]5[C@H](O)[C@H]3O)[C@H]3COC(=O)[C@H]23)OCO4)cc(OC)c1O [ETP, etoposide]
IC50 (MC38 cells): 160 nM

SMILES: Nc1ccn([C@@H]2O[C@H](CO)[C@@H](O)C2(F)F)c(=O)n1 [GCB HCl, gemcitabine]
IC50 (MC38 cells): 3 nM

SMILES: CC(=O)O[C@H]1C(=O)[C@@]2(C)[C@H]([C@H](OC(=O)c3ccccc3)[C@]3(O)C[C@H](OC(=O)[C@H](O)[C@@H](NC(=O)c4ccccc4)c4ccccc4)C(C)=C1C3(C)C)[C@]1(OC(C)=O)CO[C@@H]1C[C@@H]2O [PTX, paclitaxel]
IC50 (MC38 cells): 32 nM
